Assay results: patent US20030073850A1, “4-Imidazole derivatives of benzyl and restricted benzyl sulfonamides, sulfamides, ureas, carbamates, and amides and their use” (priority 1998, published 2003)
Read-outs that look alike come from different tables or passages of the source.

Tests used:
[1] = biological target: T1, α1b (hamster receptor expressed in mouse fibroblasts) (Mesocricetus auratus, UniProt P18841); experiment: Radioligand binding, [3H]-prazosin, α1b
T1 construct: expressed in transfected cells; host or cells: mouse fibroblasts
T1 sequence (P18841 1-515): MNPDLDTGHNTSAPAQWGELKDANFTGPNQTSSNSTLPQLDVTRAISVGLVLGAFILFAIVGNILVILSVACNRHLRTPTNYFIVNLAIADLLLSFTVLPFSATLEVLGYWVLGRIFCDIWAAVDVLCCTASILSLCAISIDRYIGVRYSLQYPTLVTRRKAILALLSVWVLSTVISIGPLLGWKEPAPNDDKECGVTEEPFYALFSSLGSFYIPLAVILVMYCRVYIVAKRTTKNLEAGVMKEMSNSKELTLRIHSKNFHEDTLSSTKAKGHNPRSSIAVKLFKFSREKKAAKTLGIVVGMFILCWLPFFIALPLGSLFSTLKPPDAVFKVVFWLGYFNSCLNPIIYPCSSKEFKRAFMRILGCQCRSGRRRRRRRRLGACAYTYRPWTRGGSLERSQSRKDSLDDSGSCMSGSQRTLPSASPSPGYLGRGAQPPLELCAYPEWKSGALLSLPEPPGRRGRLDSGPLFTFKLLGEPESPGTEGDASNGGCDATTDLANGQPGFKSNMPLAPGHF
Method: (§1) For purposes of discussing a, adrenoceptor subtypes, the IUPHAR convention of using lower case letters to define molecular clones and upper case letters to indicate pharmacologically defined adrenoceptors has been followed. Compounds of formula I were evaluated in radioligand binding assays specific for α1A (rat submaxillary gland), α1b (hamster receptor expressed in mouse fibroblasts) and α1d (rat receptor expressed in mouse fibroblasts) using [^3H]-prazosin as the radioligand as described in Knepper, et al. J. Pharm.

anesthetized dogs [2] = experiment: Mean arterial pressure (MAP) in anesthetized dogs; format: in vivo, dog; details: iv dose causing a maximum increase in MAP of 20 mm Hg, anesthetized female Beagle dogs
From the text: (§2) Female Beagle dogs (Marshall Farms, North Rose, N.Y.) greater that 2 years of age and weighing between 12 and 15 kg were used in these studies. At least 2 weeks prior to any agonist dosing, dogs were instrumented for the chronic measurement of arterial blood pressure by implanting a telemetry transducer/transmitter (TA11PA-C40, Data Sciences International, St. Paul, Minn.) into a carotid artery.
(§3) On the test day, dogs fasted since the previous afternoon were pre-anesthetized with thiopental sodium 15 mg/kg i.v. (Pentothal™, Abbott) and intubated. Anesthesia was maintained by allowing the dog to spontaneously breathe a mixture of isoflurane (2.5 to 3 volume %) and oxygen delivered by a Narkomed Standard anesthesia system (North American Drager, Telford, Pa.). An Abbocath-T™ i.v. catheter (18-G, Abbott) was inserted into the cephalic vein for the administration of agonists. A telemetry receiver (RA1310, DataSciences) was placed under the head of each dog and was interfaced to a computerized data acquisition system (Modular Instruments Inc.(MI2), Malvern, Pa.) which allowed for the continuous calibrated recording of arterial blood pressure which was electronically filtered to determine its mean value (MAP).
(§4) From the resulting dose response curve, an ED5 value, for the dose causing a maximum increase in IUP of 5 mm Hg, could be estimated. An ED20 value for the dose causing a maximum increase in MAP of 20 mm Hg could also be estimated. A selectivity ratio of MAP ED20 vs. IUP ED, was calculated.

anesthetized dogs [3] = experiment: Intraurethral pressure (IUP) in anesthetized dogs; format: in vivo, dog; details: for ED (5 mm Hg): Canis lupus familiaris, iv dose causing a maximum increase in IUP of 5 mm Hg, anesthetized female Beagle dogs, read-out: Mean IUP ED5; for Mean Selectivity Ratio MAP ED20/IUP ED5: anesthetized dogs, iv
From the text: as §2, §3
Dogs with chronic telemetry implants anesthetized as described above were placed in dorsal recumbency and a balloon catheter was inserted into the urethral orifice and advanced approximately 15 cm until the tip was well inside the bladder. The balloon was then inflated with 1 ml of room air and the catheter slowly withdrawn until resistance (corresponding to the bladder neck) was evident. The balloon was then deflated and the catheter withdrawn additional 2 cm. The balloon was then reinflated and its catheter port connected to a Gould Statham P23Dd pressure transducer interfaced to a computerized data acquisition system (Modular Instruments, Inc., Malvern, Pa.) for the measurement of the intraurethral pressure. Increasing iv doses of test agonists were administered and the maximum effect of each dose on IUP was recorded. The effect of each dose was allowed to return to baseline before the next dose was given.
as §4

[4] = biological target: T2, α1d (rat receptor expressed in mouse fibroblasts) (Rattus norvegicus, UniProt P23944); experiment: Radioligand binding, [3H]-prazosin, α1d
T2 construct: expressed in transfected cells; host or cells: mouse fibroblasts
T2 sequence (P23944 1-561): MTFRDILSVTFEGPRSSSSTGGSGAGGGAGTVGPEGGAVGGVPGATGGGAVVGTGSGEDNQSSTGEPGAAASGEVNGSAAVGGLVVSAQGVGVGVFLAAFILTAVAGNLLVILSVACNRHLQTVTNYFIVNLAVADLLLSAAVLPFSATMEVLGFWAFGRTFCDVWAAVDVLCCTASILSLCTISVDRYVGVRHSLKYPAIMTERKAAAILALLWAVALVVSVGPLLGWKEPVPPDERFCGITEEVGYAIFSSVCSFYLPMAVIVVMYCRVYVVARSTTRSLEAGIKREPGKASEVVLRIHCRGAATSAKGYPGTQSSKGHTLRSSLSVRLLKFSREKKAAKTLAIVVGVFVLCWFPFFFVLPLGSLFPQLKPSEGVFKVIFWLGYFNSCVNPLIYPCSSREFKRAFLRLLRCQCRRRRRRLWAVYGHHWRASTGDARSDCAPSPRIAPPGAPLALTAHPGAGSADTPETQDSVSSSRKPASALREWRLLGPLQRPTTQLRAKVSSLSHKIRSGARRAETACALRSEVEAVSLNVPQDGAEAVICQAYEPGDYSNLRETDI
Method: as §1

[5] = biological target: T3, α1A (rat submaxillary gland) (Rattus norvegicus, UniProt P43140); experiment: Radioligand binding, [3H]-prazosin, α1A
T3 construct: α1A (rat submaxillary gland); from tissue; host or cells: rat submaxillary gland
T3 sequence (P43140 1-466): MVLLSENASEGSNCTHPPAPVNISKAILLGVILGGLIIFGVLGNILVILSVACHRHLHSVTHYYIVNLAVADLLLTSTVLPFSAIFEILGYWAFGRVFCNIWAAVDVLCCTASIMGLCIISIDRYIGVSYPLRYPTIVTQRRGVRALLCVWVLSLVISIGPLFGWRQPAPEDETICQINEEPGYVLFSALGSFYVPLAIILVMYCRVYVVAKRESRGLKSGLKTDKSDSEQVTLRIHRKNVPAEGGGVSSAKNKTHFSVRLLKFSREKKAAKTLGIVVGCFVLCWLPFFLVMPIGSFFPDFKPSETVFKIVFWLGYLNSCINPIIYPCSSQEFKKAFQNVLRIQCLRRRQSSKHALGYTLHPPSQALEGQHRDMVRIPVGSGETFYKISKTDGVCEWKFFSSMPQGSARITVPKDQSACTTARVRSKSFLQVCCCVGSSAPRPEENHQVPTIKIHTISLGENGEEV
Method: as §1

α1A (rabbit urethra) = biological target: T4, α1A (rabbit urethra) (Oryctolagus cuniculus, UniProt O02824); experiment: Agonist tissue response, contraction of rabbit urethra; format: biochemical; details: values without asterisk, read-out: Agonist Tissue Response (pD2) α1A (rab ureth) (converted)
T4 construct: tested for α1A functional activity using rabbit urethra; from tissue; host or cells: rabbit urethra (female New Zealand white rabbits)
T4 sequence (O02824 1-466): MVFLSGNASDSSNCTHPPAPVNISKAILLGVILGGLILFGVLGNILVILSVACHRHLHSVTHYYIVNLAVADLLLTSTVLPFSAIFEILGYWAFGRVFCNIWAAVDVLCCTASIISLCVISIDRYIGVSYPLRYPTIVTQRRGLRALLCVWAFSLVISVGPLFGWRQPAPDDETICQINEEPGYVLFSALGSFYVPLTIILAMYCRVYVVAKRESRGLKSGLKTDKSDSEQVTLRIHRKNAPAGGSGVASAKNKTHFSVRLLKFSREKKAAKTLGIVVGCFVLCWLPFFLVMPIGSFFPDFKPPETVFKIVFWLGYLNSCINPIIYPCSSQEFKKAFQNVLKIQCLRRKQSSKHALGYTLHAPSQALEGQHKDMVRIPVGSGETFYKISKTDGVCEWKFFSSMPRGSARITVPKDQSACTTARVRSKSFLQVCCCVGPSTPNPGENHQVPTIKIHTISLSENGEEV
Method: Most of the compounds were tested for α1A functional activity using rabbit urethra as follows. Female New Zealand white rabbits (2.0-3.5 Kg) were sedated with CO2 and decapitated. […] Subsequent experimental conditions were as described above for the other tissues. Agonist concentration response curves were cumulative except for the vas deferens assay in which the transient response made such measurements impractical.

[6] = hamster receptor expressed in mouse fibroblasts, [3H]-prazosin, read-out: Radioligand Binding Ki α1b (Hamster)
[7] = rat receptor expressed in mouse fibroblasts, [3H]-prazosin, read-out: Radioligand Binding Ki α1d (Rat)

Compound	melting point	Ki [1, 6]	ED (5 mm Hg) (anesthetized dogs [3])	Mean MAP ED20 (anesthetized dogs [2])	Ki [5]	other results
CCS(=O)(=O)Nc1cccc2c1CCCC2c1c[nH]cn1.O=C(O)/C=C\C(=O)O (single isomer, unassigned; (-)) [Example 34, (−)-N-[5-(1H-imidazol-4-yl)-5,6,7,8-tetrahydro-1-naphthalenyl]ethanesulfonamide, Maleate]	129 to 130 °C	–	–	–	–	Ki ([1]; hamster receptor expressed in mouse fibroblasts, [3H]-prazosin, Maleate, read-out: Radioligand Binding Ki α1b (Hamster)): 10 µM; Mean MAP ED20 (anesthetized dogs [2]; Maleate): >1000 nmol/kg
O=C(Nc1cccc2c1CCCC2c1c[nH]cn1)C(F)(F)F.O=C(O)/C=C\C(=O)O (centres unmarked) [Example 17, 2,2,2-trifluoro-N-[5-(1H-imidazol-4-yl)-5,6,7,8-tetrahydro-1-naphthalenyl]acetamide, maleate]	–	10 µM	0.188 µmol/kg	216 nmol/kg	–	–
CCS(=O)(=O)Nc1cc(F)cc2c1OCCC2c1c[nH]cn1.O=C(O)/C=C\C(=O)O (centres unmarked) [Example 80, N-[6-fluoro-4-(1H-imidazol-4-yl)-3,4-dihydro-2H-chromen-8-yl]ethanesulfonamide, Maleate]	–	10 µM	0.113 µmol/kg	125.78 nmol/kg	0.378 µM	Mean Selectivity Ratio MAP ED20/IUP ED5 (anesthetized dogs [3]): 1.12; Ki [4, 7]: 1.59 µM
COCCN(CCOC)C(=O)Nc1cccc2c1CCCC2c1c[nH]cn1 (centres unmarked) [Example 116, N′-[5-(1H-imidazol-4-yl)-5,6,7,8-tetrahydro-1-naphthalenyl]-N,N-bis(2-methoxyethyl)urea]	–	10 µM	–	–	2.98 µM	EC50 (α1A (rabbit urethra)): 9.33 µM; Ki [4, 7]: 10 µM
CN(c1cccc2c1CCCC2c1c[nH]cn1)S(C)(=O)=O.O=C(O)/C=C\C(=O)O (centres unmarked) [Example 15, N-[5-(1H-imidazol-4-yl)-5,6,7,8-tetrahydro-1-naphthalenyl]-N-methylmethanesulfonamide, Maleate]	–	10 µM	0.0919 µmol/kg	225 nmol/kg	–	–
C=C(c1cccc(NS(=O)(=O)CC)c1)c1c[nH]cn1.O=C(O)/C=C\C(=O)O [Example 45, N-{3-[1-(1H-imidazol-4-yl)vinyl]phenyl}ethanesulfonamide, Maleate]	–	–	0.273 µmol/kg	633 nmol/kg	–	–
CC(C)[C@H]1CC[C@H](C)C[C@@H]1OC(=O)Nc1cccc2c1CCCC2c1c[nH]cn1 (stereo partly drawn) [Example 123, (1S,2R,5S)-2-isopropyl-5-methylcyclohexyl 5-(1H-imidazol-4-yl)-5,6,7,8-tetrahydro-1-naphthalenylcarbamate]	–	1.36 µM	–	–	1.28 µM	EC50 (α1A (rabbit urethra)): 6.17 µM; Ki [4, 7]: 0.692 µM
CS(=O)(=O)Nc1cccc2c1CCC[C@@H]2c1c[nH]cn1 [Example 10, (−)-N-[(5S)-5-(1H-imidazol-4-yl)-5,6,7,8-tetrahydro-1-naphthalenyl]methanesulfonamide]	118 to 123 °C	–	> 1 µmol/kg	>1000 nmol/kg	–	–
O=C(Nc1cccc2c1CCCC2c1c[nH]cn1)OCC(Cl)(Cl)Cl (centres unmarked) [Example 121, 2,2,2-trichloroethyl 5-(1H-imidazol-4-yl)-5,6,7,8-tetrahydro-1-naphthalenylcarbamate]	–	–	–	–	0.229 µM	Ki [1]: 1.85 µM; EC50 (α1A (rabbit urethra)): 3.72 µM; Ki [4]: 0.963 µM
CS(=O)(=O)Nc1ccc(F)c2c1CCCC2c1c[nH]cn1.O=C(O)/C=C\C(=O)O (centres unmarked) [Example 44, N-[4-fluoro-5-(1H-imidazol-4-yl)-5,6,7,8-tetrahydro-1-naphthalenyl]methanesulfonamide, Maleate]	182 to 186 °C	10 µM	0.892 µmol/kg	588 nmol/kg	–	–
CCS(=O)(=O)Nc1cc(Cl)cc2c1CCCC2c1c[nH]cn1 (centres unmarked) [Example 132, N-[3-chloro-5-(1H-imidazol-4-yl)-5,6,7,8-tetrahydro-1-naphthalenyl]ethanesulfonamide]	–	–	0.019 µmol/kg	47.7 nmol/kg	0.047 µM	Ki [1]: 10 µM; Mean Selectivity Ratio MAP ED20/IUP ED5 (anesthetized dogs [3]): 2.5; Ki [4]: 0.367 µM
CCS(=O)(=O)Nc1cccc2c1CCC2c1c[nH]cn1.O=C(O)/C=C\C(=O)O (centres unmarked) [Example 39, N-[1-(1H-imidazol-4-yl)-2,3-dihydro-1H-inden-4-yl]ethanesulfonamide, Maleate]	148 to 149 °C	–	–	5.6 nmol/kg	–	–
